According to ChEMBL document CHEMBL1201862, “PubChem BioAssay data set” (2004):
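Each compound was tested at five concentrations against cells in 96-well plates for 48 hours. At the GI50, growth is halved.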 The source made the active and inactive calls. Rule as the data show it: active = GI50 up to about 1.1 µM and inactive = higher.

Columns and labels:
Assay in all cases: NCI anticancer screen, dose series, 48 h
[1] = system: ACHN
[2] = system: CAKI-1
[3] = system: CCRF-CEM
[4] = system: DLD-1
[5] = system: IGROV-1
[6] = system: MCF7
[7] = system: MDA-MB-231
[8] = system: MDA-MB-435
[9] = system: Malme-3M
[10] = system: OVCAR-5
[11] = system: PC-3
[12] = system: RPMI-8226
[13] = system: RXF 393
[14] = system: SK-MEL-28
[15] = system: SK-MEL-2
[16] = system: SK-OV-3
[17] = system: SN12C
[18] = system: SNB-19
[19] = system: SR
[20] = system: TK-10

Measured: GI50

CN(C)CCCCCNc1c2ccccc2nc2cccc([N+](=O)[O-])c12
active: [1] 0.766 nM | [2] 2.29 nM | [3] 24 nM | [4] 3.42 nM | [5] 2.2 nM | [6] 5.83 nM | [7] 0.32 nM | [8] 0.2 nM | [9] 1.85 nM | [10] 1.82 nM | [11] 0.313 nM | [12] 0.42 nM | [13] 3.7 nM | [14] 4.81 nM | [15] 1.07 nM | [16] 6.07 nM | [17] 1.86 nM | [18] 4.13 nM | [19] 0.447 nM | [20] 3.37 nM
